Test results published in patent US12221449B2, “Pyrrolopyrimidine derivative and use thereof” (WUHAN HUMANWELL INNOVATIVE DRUG RESEARCH AND DEVELOPMENT …, priority 2019, dated 2025).
Converted amounts (≈) assume the structure as drawn. Where two headings read alike, the source gives them in different places.

How the values were obtained:
Autotaxin (ATX) enzyme = Autotaxin (ATX) enzyme (Homo sapiens (Human), UniProt Q13822); assay: Autotaxin (ATX) enzyme activity inhibition assay (Cayman Autotaxin Inhibitor Screening Assay Kit); assay type: biochemical; settings: OD405, 37° C., 30 min; read-out: IC50, inhibitory activity on ATX activity
Procedure: Subsequently, the 8 concentrations were diluted with Autotaxin Assay buffer (1×) provided in the kit into 19× compound working solutions (DMSO content was 1.9%). The Autotaxin Assay Reagent (10×) was taken out and diluted by 10 times with Autotaxin Assay Buffer (1×). The Autotaxin Substrate was taken out, dissolved by adding 1.2 mL of Autotaxin Assay Buffer (1×), mixed evenly and stood at room temperature.

[1] = Human liver microsome stability test; assay type: in vitro ADME; settings: human liver microsomes; for Remaining percentage (%) of compound after incubation for 30 min: 37° C., NADPH; for half-life at 1 µM: human
Procedure: The human liver microsome stability test was performed by incubating the compound and human liver microsomes in vitro. First, the test compound is prepared as a 10 mM stock solution in DMSO solvent, and then the compound was diluted to 0.5 mM with acetonitrile. Human liver microsomes (Corning) were diluted with PBS and prepared as a microsome/buffer solution, which was used to dilute 0.5 mM of the compound into a working solution. […] A deep-well multiwell plate was taken, 30 μL of the working solution and 15 μL of pre-warmed NADPH solution (6 mM) were sequentially added to each well to initiate a reaction, and the reaction was incubated at 37° C. […] After centrifugation, the supernatant was collected, and added with purified water in a ratio of 1:1 to perform LC-MS/MS detection. […] T1/2 was calculated by using Excel.

[2] = biological target: hERG channels (CHO cell line stably expressing hERG) (Homo sapiens (Human), UniProt Q12809); assay: Inhibitory effect on hERG by full-automatic electrophysiological patch clamp QPatch; assay type: cell-based; settings: for IC50: CHO hERG cells, QPatch; for hERG IC50/ATX IC50: ratio of hERG IC50 (μM) to ATX IC50 (nM)
Sequence of hERG channels (CHO cell line stably expressing hERG) (Q12809 whole entry): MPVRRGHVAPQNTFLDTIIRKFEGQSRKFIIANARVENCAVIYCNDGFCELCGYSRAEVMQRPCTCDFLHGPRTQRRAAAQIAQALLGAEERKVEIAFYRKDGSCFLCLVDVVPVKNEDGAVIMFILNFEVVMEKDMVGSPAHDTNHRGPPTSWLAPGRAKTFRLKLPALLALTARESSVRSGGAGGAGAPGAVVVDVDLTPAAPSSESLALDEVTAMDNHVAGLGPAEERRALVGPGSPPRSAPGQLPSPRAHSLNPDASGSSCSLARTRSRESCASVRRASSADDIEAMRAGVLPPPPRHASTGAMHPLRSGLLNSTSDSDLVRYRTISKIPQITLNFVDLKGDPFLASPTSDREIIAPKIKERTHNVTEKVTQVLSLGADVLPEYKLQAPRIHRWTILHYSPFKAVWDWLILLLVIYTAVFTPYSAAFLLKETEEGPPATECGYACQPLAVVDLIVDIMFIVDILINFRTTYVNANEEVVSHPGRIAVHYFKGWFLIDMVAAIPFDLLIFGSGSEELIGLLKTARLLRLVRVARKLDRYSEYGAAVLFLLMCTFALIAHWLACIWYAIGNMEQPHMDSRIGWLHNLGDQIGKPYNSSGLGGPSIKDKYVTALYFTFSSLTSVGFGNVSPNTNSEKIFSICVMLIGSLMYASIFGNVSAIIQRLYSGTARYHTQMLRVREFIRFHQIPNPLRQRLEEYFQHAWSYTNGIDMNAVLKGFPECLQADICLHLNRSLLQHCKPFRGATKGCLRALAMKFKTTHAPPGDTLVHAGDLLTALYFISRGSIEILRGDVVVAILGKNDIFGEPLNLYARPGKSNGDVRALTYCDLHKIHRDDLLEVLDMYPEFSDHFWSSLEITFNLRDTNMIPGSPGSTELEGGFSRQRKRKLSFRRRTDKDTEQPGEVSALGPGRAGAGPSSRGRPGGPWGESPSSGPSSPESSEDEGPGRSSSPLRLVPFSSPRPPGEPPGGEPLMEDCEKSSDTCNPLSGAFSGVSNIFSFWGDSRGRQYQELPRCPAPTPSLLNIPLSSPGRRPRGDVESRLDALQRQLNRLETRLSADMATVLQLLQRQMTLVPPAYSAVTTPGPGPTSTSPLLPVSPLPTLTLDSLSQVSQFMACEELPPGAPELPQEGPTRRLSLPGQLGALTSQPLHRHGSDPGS
Procedure: Full-automatic electrophysiological patch clamp QPatch was used to detect the inhibitory effect of compounds on hERG. Cells used in this test were CHO cell line transfected with cDNA of hERG and stably expressing hERG channels (provided by Sophion Bioscience, Denmark), and the cell passage number was P24. The cells were cultured in a medium containing the following components (all purchased from Invitrogen): Ham's F12 medium, inactivated fetal bovine serum (10% (v/v)), hygromycin B (100 μg/ml), and Geneticin (100 μg/ml). CHO hERG cells were grown in a petri dish containing the above-mentioned medium and cultured in an incubator at 37° C. and containing 5% Co2.
The compound to be tested was prepared as a 10 mM stock solution in DMSO solvent, the compound was diluted to 3 mM, 1 mM, 0.3 mM, and 0.1 mM with DMSO, and then the compound was diluted to 30 μM, 10 μM, 3 μM, 1 μM, 0.3 μM and 0.1 μM with the extracellular fluid, so that except that the final concentration of DMSO in the 30 μM compound was 0.3%, the final concentration of DMSO in compound solutions of all other concentrations was 0.1%.
The CHO hERG cells, after being digested and resuspended, were added to the fully automated QPatch system (Sophion, Denmark), and subjected to a test according to the following preset procedure.
After reaching the ruptured whole cell configuration state in the initial stage, the whole cell current was recorded at room temperature (about 25° C.), and the cells were recorded for at least 120 seconds in order to achieve stability. The stable cells were selected for the test. During the whole test, the cell patch clamp was at a voltage of −80 mV, the cell patch clamp voltage was depolarized to +20 mV to activate the hERG potassium channels, and after 2.5 seconds, the cell patch clamp voltage was at −50 mV to eliminate inactivation and generate outward tail current. The peak tail current was used as the value of the hERG current. The voltage mode described above was applied to the cells for electrophysiological tests every 15 seconds. An intracellular liquid containing 0.1% dimethyl sulfoxide (solvent) was added to the cells to establish a baseline, and then the current was allowed to stabilize for 3 min. After the compound solution was added, the cells were kept in the test environment until the effect of the compound reached a steady state or until reaching 4 min. In the test experiments with different concentration gradients of the compound, the compound was added to the clamped cells from low to high concentration. After the compound test was finished, the cells were washed with the extracellular fluid until the current returned to a stable state.
The test data were analyzed by Qpatch analysis software provided by Sophion, Excel, and Graphpad Prism.

[3] = Thermodynamic solubility test; assay type: physicochemical; settings: for solubility: thermodynamic from solid
Procedure: The compound was accurately weighed, and the prepared phosphate buffer (pH 7.4), FeSSIF solution (pH 5.8) and FaSSGF solution (pH 1.6) were added to prepare a solution with a concentration of 4 mg/mL, which was shaken at 1,000 rpm for 1 hour, and then incubated overnight at room temperature. After the incubation, the solution was centrifuged at 12,000 rpm for 10 min to remove undissolved particles, and the supernatant was transferred to a new centrifuge tube. The supernatant was diluted appropriately, then added with an acetonitrile solution containing the internal standard, and quantified using a standard curve prepared with the same matrix.

[4] = Pharmacokinetic test in rats; assay type: in vivo, male SD rats; settings: for AUC(0-t) / clearance / half-life / Vd / Cmax / Tmax: male, SD, rat, plasma; for Vd: read-out: Vz
Procedure: (§1) For the in vivo pharmacokinetic test of rats, 6 male SD rats were used, 180-240 g, fasted overnight. […] The blood samples were centrifuged at 8,000 rpm at 4° C. for 6 min, and plasma was collected and stored at −20° C. The plasma at each time point was taken and added with an acetonitrile solution containing internal standard in 3-5 times the amount, vortexed and mixed for 1 min, and centrifuged at 13,000 rpm at 4° C. for 10 min. The supernatant was collected, added and mixed with water in 3 times the amount. An appropriate amount of the mixture was taken for LC-MS/MS analysis. The main pharmacokinetic parameters were analyzed using WinNonlin 7.0 software with non-compartmental model.

[5] = biological target: ATX enzyme activity in human plasma (Homo sapiens (Human), UniProt Q13822); assay: Inhibition test of ATX enzyme activity in human plasma (LPA18:2 formation); assay type: biochemical; settings: 37° C., 3 h
Procedure: Whole blood was collected from healthy volunteers and anticoagulated with heparin. The blood collection tubes were centrifuged at 3,000 rpm for 10 min, and the plasma was taken and stored at −80° C. for use.
The compound was serially diluted with DMSO according to the conventional concentration requirements, and then 3 μL of the diluted compound was added to a 96-well plate, and 147 μL of PBS was added to each well containing 3 μL of the compound. After mixing homogenously, 50 μL of the mixture was removed and added to a new 96-well plate. The human plasma was taken out from the −80° C. refrigerator and thawed through rapid shaking in a 37° C. water bath. 50 μL of the human plasma was taken and added to the 96-well plate containing 50 μL of the diluted compound (the final system was 1% DMSO). The group without the compound was set as the positive control group. The 96-well plate was shaken and mixed uniformly, and incubated at 37° C. for 3 h. A blank group was also provided, and the plasma of the blank group was stored at −80° C. The blank group is provided to determine the baseline concentration of endogenous LPA.
After the incubation was finished, the blank group was thawed on ice and transferred to an incubation plate. Excess acetonitrile containing the internal standard LPA17:0 was added to the incubation plate to precipitate the plasma protein. After vortex centrifugation, the supernatant was taken and diluted, and a peak area of LPA18:2 and a peak area of internal standard LPA17:0 were detected using LC-MSMS mass spectrometry.
According to the inhibition rates of different concentrations of the compound, the IC50 value of the compound, which is related to inhibition of ATX enzyme activity in human plasma, was calculated.

[6] = system: idiopathic pulmonary fibrosis model (IPF model) induced by bleomycin; assay: IPF model induced by bleomycin in rats; assay type: in vivo, male BN rats; settings: 30 mg/kg orally twice a day; for weight reduction of the animals: 21 days, compared with control compound group, FIG. 1
Procedure: Using male BN rats, 180-240 g, idiopathic pulmonary fibrosis model (IPF model) was induced with a dose of 5 U/kg bleomycin. […] On the second day after the model was established, the animals were orally administered by gavage twice a day, where the administration group was administered with a dose of 30 mg/kg each time, and the solvent control group was administered with a blank solvent, and the administration continued for 21 days. During the administration, the body weight was weighed every three days. On day 21 of administration, alveolar lavage was conducted 2 h after the first administration, the inflammatory cells in the lavage fluid were counted, and the associated biomarkers in the supernatant of the lavage fluid were detected. After lavage, the left lungs of the rats were fixed, and stained with Masson's trichrome staining to score the fibrosis pathology. The remaining lung lobes were cryopreserved. The supernatant of the alveolar lavage fluid and the freshly frozen lung tissue of the three compound groups were taken and detected for a content of TGF-β1 protein and an amount of total protein by using ELISA, and the amount of TGF-β1 per milligram of total protein was calculated.

[7] = Pharmacokinetic test in mice; assay type: in vivo, male ICR mice
Procedure: as §1
For the in vivo pharmacokinetic test of mice, 18 male ICR mice were used, 20-25 g, fasted overnight. Among them, 9 mice were orally administered by gavage (10 mg/kg), bloods of 3 mice were collected at each blood collection time point, and the bloods of the 9 mice were alternately collected. The other 9 mice were intravenously administered with the compound (1 mg/kg), bloods of 3 mice were collected at each blood collection time point, and the bloods of the 9 mice were alternately collected. The rest operations were the same as that of pharmacokinetic test in rats.

[8] = cited from earlier work; for probability of discontinuation due to serious adverse events: patients taking the drug, Maher et al. 2019
[9] = FaSSGF solution, fassgf or other biorelevant, FaSSGF, pH 1.6, thermodynamic, read-out: Dissolubility FaSSGF (pH 1.6)
[10] = phosphate buffered saline, aqueous buffer, PBS, pH 7.4, thermodynamic, read-out: Dissolubility PBS (pH 7.4)
[11] = intravenous administration 1 mg/kg
[12] = oral administration by gavage 10 mg/kg
[13] = FeSSIF solution, FeSSIF, pH 5.8, thermodynamic, read-out: Dissolubility FeSSIF (pH 5.8)
[14] = day 21, compared with solvent control group, FIG. 2
[15] = male, ICR, mouse, plasma, intravenous administration 1 mg/kg
[16] = male, ICR, mouse, plasma, oral administration by gavage 10 mg/kg

Molecule CC(Cc1cnn[nH]1)OCC(=O)N1Cc2cnc(NC3Cc4ccccc4C3)nc2C1 (racemic) [Compound I-2, 2-((1-(1H-1,2,3-triazol-5-yl)propan-2-yl)oxy)-1-(2-((2,3-dihydro-1H-inden-2-yl)amino)-5,7-dihydro-6H-pyrrolo[3,4-d]pyrimidin-6-yl)ethan-1-one] has an IC50 (Autotaxin (ATX) enzyme) of 1.35 nM.
For C[C@@H](Cc1cnn[nH]1)OCC(=O)N1Cc2cnc(NC3Cc4ccccc4C3)nc2C1 [Compound I-2S, (S)-2-((1-(1H-1,2,3-triazol-5-yl)propan-2-yl)oxy)-1-(2-((2,3-dihydro-1H-inden-2-yl)amino)-5,7-dihydro-6H-pyrrolo[3,4-d]pyrimidin-6-yl)ethan-1-one], the IC50 (Autotaxin (ATX) enzyme) was 1.4 nM, the “Remaining percentage (%) of compound after incubation for 30 min” value (“Remaining percentage (%) of compound” for short) [1] was 42.9% and the half-life at 1 µM [1] was 26.6 min. For the same molecule, the IC50 [2] was 8780 nM, the “hERG IC50/ATX IC50” value [2] was 8.87/1.40 = 6.3 and the solubility [3, 9] was 1240 µg/mL (≈ 2960 µM). The solubility [3, 10] was 73.6 µg/mL (≈ 175 µM), the AUC(0-t) [4, 11] was 661 ng·h/mL and the clearance [4, 11] was 25.2 mL/min/kg. For the same molecule, the half-life [4, 11] was 20.4 min, the Vd [4, 11] was 0.74 L/kg and the AUC(0-t) [4, 12] was 3690 ng·h/mL. The Cmax [4, 12] was 2420 ng/mL, the Tmax [4, 12] was 25.2 min and the half-life [4, 12] was 115 min. The IC50 [5] was 2.1 nM and the “weight reduction of the animals” value [6] was “significantly less than that of the control compound group”.
With C[C@H](Cc1cnn[nH]1)OCC(=O)N1Cc2cnc(NC3Cc4ccccc4C3)nc2C1 [Compound I-2R, (R)-2-((1-(1H-1,2,3-triazol-5-yl)propan-2-yl)oxy)-1-(2-((2,3-dihydro-1H-inden-2-yl)amino)-5,7-dihydro-6H-pyrrolo[3,4-d]pyrimidin-6-yl)ethan-1-one] the “Remaining percentage (%) of compound” value [1] was 63.7%, the half-life at 1 µM [1] was 53.6 min and the IC50 [2] was 9480 nM. The “hERG IC50/ATX IC50” value [2] was 9.48/1.59 = 6.0, the solubility [3, 9] was 1040 µg/mL (≈ 2470 µM) and the solubility [3, 13] was 260 µg/mL (≈ 620 µM). The solubility [3, 10] was 107 µg/mL (≈ 255 µM), the “clearance rate (CL) relative to that of the control compound” value ([4]; fraction of control compound's CL) was “about ¼” and the “oral AUC0-t relative to that of the control compound” value ([4]; oral) was 4.2 times. For the same molecule, the “oral Cmax relative to that of the control compound” value ([4]; oral) was 6.1 times, the IC50 [5] was 4.73 nM and the “weight reduction of the animals” value [6] was “significantly less than that of the control compound group”. The “content of TGF-β1 in the freshly frozen lung tissue” value [6, 14] was “significantly lower than those of the solvent control group” and the “content of TGF-β1 in the supernatant of the alveolar lavage fluid” value [6, 14] was “significantly lower than those of the solvent control group”.
In the case of O=C(COCCc1cnn[nH]1)N1Cc2cnc(NC3Cc4ccccc4C3)nc2C1 [Control compound, reference compound], the T1/2 [1] is reported as 24.1 min, the “Remaining percentage (%) of compound” value [1] is reported as 41.2% and the “Dissolubility FaSSGF (pH 1.6)” value ([3]; FaSSGF, pH 1.6, thermodynamic) is reported as 66.5 μg/mL. The “Dissolubility FeSSIF (pH 5.8)” value ([3]; FeSSIF, pH 5.8, thermodynamic) was 18.3 μg/mL, the “Dissolubility PBS (pH 7.4)” value ([3]; PBS, pH 7.4, thermodynamic) was 6.3 μg/mL and the “thermodynamic solubility (in words)” value ([3]; simulated gastric juice, simulated intestinal juice, neutral conditions) was “relatively poor”. The T1/2 [7, 11] was 20.4 min, the T1/2 [7, 12] was 49.8 min and the T1/2 [4, 11] was 27 min. For the same molecule, the T1/2 [4, 12] was 78.6 min.
For COC(=O)c1ccc2c(c1)NC(=O)/C2=C(\Nc1ccc(N(C)C(=O)CN2CCN(C)CC2)cc1)c1ccccc1 [Nintedanib], the “probability of discontinuation due to serious adverse events” value [8] is given as 26.3% and the “incidence of gastrointestinal reactions” value ([8]; patients) is given as ≤ 50%.
Molecule C[C@H](OCCc1c[nH]nn1)C(=O)N1Cc2cnc(NC3Cc4ccccc4C3)nc2C1 [Compound I-1S, (S)-2-(2-(1H-1,2,3-triazol-4-yl)ethoxy)-1-(2-((2,3-dihydro-1H-inden-2-yl)amino)-5,7-dihydro-6H-pyrrolo[3,4-d]pyrimidin-6-yl)propan-1-one] has an IC50 (Autotaxin (ATX) enzyme) of 28.6 nM.
In the case of C[C@@H](OCCc1c[nH]nn1)C(=O)N1Cc2cnc(NC3Cc4ccccc4C3)nc2C1 [Compound I-1R, (R)-2-(2-(1H-1,2,3-triazol-4-yl)ethoxy)-1-(2-((2,3-dihydro-1H-inden-2-yl)amino)-5,7-dihydro-6H-pyrrolo[3,4-d]pyrimidin-6-yl)propan-1-one], the IC50 (Autotaxin (ATX) enzyme) is reported as 2.67 nM, the “Remaining percentage (%) of compound” value [1] is reported as 86.0% and the half-life at 1 µM [1] is reported as 123 min. The IC50 [2] was 22000 nM, the “hERG IC50/ATX IC50” value [2] was 22.0/2.67 = 8.24 and the solubility [3, 9] was 88.5 µg/mL (≈ 211 µM). It also gave a solubility [3, 13] of 20.4 µg/mL (≈ 48.6 µM), a solubility [3, 10] of 20.4 µg/mL (≈ 48.6 µM) and an AUC(0-t) [7, 15] of 495 ng·h/mL. For the same molecule, the clearance [7, 15] was 34.8 mL/min/kg, the half-life [7, 15] was 22.2 min and the Vd ([7]; male, ICR, mouse, plasma, intravenous administration 1 mg/kg, read-out: Vz) was 1.05 L/kg. For the same molecule, the AUC(0-t) [7, 16] was 6120 ng·h/mL, the Cmax [7, 16] was 6940 ng/mL and the Tmax [7, 16] was 25.2 min. The half-life [7, 16] was 40.2 min, the AUC(0-t) [4, 11] was 828 ng·h/mL and the clearance [4, 11] was 21.3 mL/min/kg. It also gave a half-life [4, 11] of 25.8 min, a Vd [4, 11] of 0.76 L/kg and an AUC(0-t) [4, 12] of 6330 ng·h/mL. For the same molecule, the Cmax [4, 12] was 3390 ng/mL, the Tmax [4, 12] was 30 min and the half-life [4, 12] was 151 min. For the same molecule, the IC50 [5] was 12 nM.
With CC(OCCc1c[nH]nn1)C(=O)N1Cc2cnc(NC3Cc4ccccc4C3)nc2C1 (racemic) [Compound I-1, 2-(2-(1H-1,2,3-triazol-4-yl)ethoxy)-1-(2-((2,3-dihydro-1H-inden-2-yl)amino)-5,7-dihydro-6H-pyrrolo[3,4-d]pyrimidin-6-yl)propan-1-one] the IC50 (Autotaxin (ATX) enzyme) was 4.24 nM, the “Remaining percentage (%) of compound” value [1] was 87.4% and the IC50 [2] was 22300 nM. The “hERG IC50/ATX IC50” value [2] was 22.3/4.24 = 5.26.
For Cc1ccc(=O)n(-c2ccccc2)c1 [Pirfenidone], the “probability of discontinuation due to serious adverse events” value [8] is given as 20.9%.
